Among the data in publication PMC4032192 (Journal of Medicinal Chemistry, 2014) are Ki values, retold here.

This assay deals with rat nNOS (Rattus norvegicus, UniProt P29476). In words: oxyhemoglobin NO capture assay, rat nNOS. The assay is classed as biochemical.
Sequence of rat nNOS (P29476 whole entry): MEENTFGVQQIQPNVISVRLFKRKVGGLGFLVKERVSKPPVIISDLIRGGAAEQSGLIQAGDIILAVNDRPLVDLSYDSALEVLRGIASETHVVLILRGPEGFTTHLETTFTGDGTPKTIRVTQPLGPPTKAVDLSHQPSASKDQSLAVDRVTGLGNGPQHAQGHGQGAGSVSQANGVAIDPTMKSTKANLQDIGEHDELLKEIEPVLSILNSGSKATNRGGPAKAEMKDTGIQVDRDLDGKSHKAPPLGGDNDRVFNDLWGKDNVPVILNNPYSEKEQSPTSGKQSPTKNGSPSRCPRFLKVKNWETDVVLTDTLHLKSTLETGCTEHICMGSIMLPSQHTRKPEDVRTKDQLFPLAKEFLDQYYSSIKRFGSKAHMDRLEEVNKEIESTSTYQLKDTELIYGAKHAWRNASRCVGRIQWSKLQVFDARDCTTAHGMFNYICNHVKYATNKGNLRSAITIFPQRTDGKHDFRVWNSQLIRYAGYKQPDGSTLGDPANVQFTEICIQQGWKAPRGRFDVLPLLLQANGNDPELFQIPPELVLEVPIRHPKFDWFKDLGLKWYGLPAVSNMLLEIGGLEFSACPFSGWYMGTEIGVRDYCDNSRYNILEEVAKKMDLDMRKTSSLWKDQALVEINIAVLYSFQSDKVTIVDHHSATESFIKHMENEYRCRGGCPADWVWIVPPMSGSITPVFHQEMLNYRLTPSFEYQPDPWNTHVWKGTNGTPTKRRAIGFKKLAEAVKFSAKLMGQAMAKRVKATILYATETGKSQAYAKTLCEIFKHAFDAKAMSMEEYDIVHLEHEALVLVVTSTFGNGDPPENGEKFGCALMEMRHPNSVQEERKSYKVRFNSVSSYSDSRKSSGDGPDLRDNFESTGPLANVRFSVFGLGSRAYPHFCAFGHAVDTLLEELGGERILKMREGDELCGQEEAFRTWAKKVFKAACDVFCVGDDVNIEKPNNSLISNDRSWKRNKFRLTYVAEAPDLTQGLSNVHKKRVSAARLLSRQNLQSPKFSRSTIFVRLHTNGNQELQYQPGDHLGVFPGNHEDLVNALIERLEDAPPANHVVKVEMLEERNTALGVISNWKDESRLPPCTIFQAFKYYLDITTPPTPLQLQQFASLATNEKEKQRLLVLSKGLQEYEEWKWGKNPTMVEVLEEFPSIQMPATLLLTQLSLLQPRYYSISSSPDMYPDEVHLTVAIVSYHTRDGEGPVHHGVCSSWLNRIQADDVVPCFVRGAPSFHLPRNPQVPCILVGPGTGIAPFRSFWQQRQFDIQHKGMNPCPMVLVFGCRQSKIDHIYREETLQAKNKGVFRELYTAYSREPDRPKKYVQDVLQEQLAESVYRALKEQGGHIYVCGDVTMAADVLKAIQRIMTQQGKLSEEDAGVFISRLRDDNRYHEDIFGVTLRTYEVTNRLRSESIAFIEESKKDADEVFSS

Compound `Cc1cc(N)nc(CCc2cccc(C(O)Cc3cc(C)cc(N)n3)c2)c1` (centres unmarked) [Compound 4] registered a Ki of around 0.1 µM. Compound `Cc1cc(N)nc(CCc2cccc([C@H](N)Cc3cc(C)cc(N)n3)c2)c1` [Compound 3R, (R)-6-(2-Amino-2-(3-(2-(6-amino-4-methylpyridin-2-yl)ethyl)phenyl)ethyl)-4-methylpyridin-2-amine] returned a Ki of around 0.1 µM.

A word on the Ki: it is the dissociation constant of the complex between target and ligand, obtained from inhibition or displacement. Low readings indicate higher affinity, high ones lower affinity.
